Key:
[1] = tested on: cGAS-STING, MyD88 and canonical NF-κB pathways in M2 BMDMs; test: Western blotting of cGAS-STING, MyD88 and canonical NF-κB pathways; type: cell-based, mouse; settings: excessive ER stress induction
Experimental: A western blot was performed as described in Example 1, to assess whether the cationic polypeptides activate innate immune sensors in APCs.

[2] = tested on: ER stress markers BiP, EIF2α, CHOP, XBP1 in bone marrow-derived macrophages; test: ER stress markers (western blotting, XBP1 RT-qPCR); type: cell-based, mouse
Experimental: M2 BMDMs (1.5×10^7 cells/100 mm^2 petri dish) or cancer cells (2×10^6 cells per 6-well plates) were treated with the experimental solutions. To evaluate inhibitory conditions, cells were pre-treated with CsA (10 μM, TCI America) for 3 h, or co-treated with 4-PBA (5 mM in phosphate-buffered saline [PBS], Tocris Bioscience, USA) and chloroquine (10 μg/mL, Alfa Aesar, USA). Each protein was extracted by using RIPA buffer containing 1% protease inhibitor and 1% phosphatase inhibitor cocktail. Protein concentrations were adjusted to 3 mg/mL by using a BCA kit, with FBS used as a standard. Electrophoresis was carried out by loading proteins (40 μg) into each lane of a sodium dodecyl sulfate-polyacrylamide gel (SDS-PAGE) gel, after which the proteins were transferred to a polyvinylidene fluoride membrane. After blocking, the PVDF membrane was treated with the corresponding primary antibody, and then washed with TBS-T three times before the treatment with the secondary antibody. The blot signals were visualized with a Chemidoc system (ChemiDoc MP imaging system, BioRad, USA).

tunicamycin
activation of MyD88 and STING in macrophages [1]: inhibited activation of MyD88 and STING in macrophages | ER stress / ER stress markers [2]: detrimental levels

— patent US20260284209A1, “POLYPEPTIDE ADJUVANTS AND USES THEREOF” (BOARD OF REGENTS, THE UNIVERSITY OF TEXAS SYSTEM, priority 2023, published 2026)
